# According to ChEMBL document CHEMBL6103629 (J Med Chem, 2025):
# Columns and labels:
# [1] = Plasma protein binding in CD-1 mouse at 1 uM incubated for 5 hrs in HTD dialysis in the presence of verapamil by LC-MS/MS analysis relative to control; assay type: ADME, cell-free; settings: read-out: PPB (converted)
# [2] = Drug metabolism in Sprague-Dawley rat liver cells at 2 uM incubated upto 120 mins by LC-MS/MS analysis; assay type: ADME, cell-based; settings: 2 h
# [3] = Drug metabolism in Beagle dogs liver cells at 2 uM incubated upto 120 mins by LC-MS/MS analysis; assay type: ADME, cell-based, Canis lupus familiaris; settings: dog, 2 h
# NCI-H1703 [4] = test: Antitumor activity against human NCI-H1703 cells xenografted in female Balb/c nude mouse assessed as tumor growth inhibition at 40 mg/kg QD, po administered as 3 days on and 4 days off schedule for 4 weeks relative to control; assay type: functional; settings: NCI-H1703, 672 h, time 28 day, read-out: TGI
# LoVo [5] = test: Induction of apoptosis in human LoVo cells assessed as early apoptotic cells at 3 uM incubated for 24 hrs by Annexin-V-FITC-PI staining based flow cytometric analysis (reference value: 13.7 %); assay type: functional
# [6] = Drug excretion in Sprague-Dawley rat feces at 5 mg/kg, IG administrated for 48 hrs by LC-MS/MS analysis; assay type: ADME, organism-based; settings: in vivo, po
# CYP2C19 = CYP2C19 (Homo sapiens, UniProt P33261); test: Inhibition of recombinant human CYP2C19 assessed as residual activity at 1 uM in the presence of NADPH incubated for 60 mins by LC-MS/MS analysis relative to control; assay type: ADME; settings: read-out: Activity
# [7] = Induction of CYP2B6 mRNA expression in human primary hepatocyte isolated from DZM donor at 0.1 to 10 uM incubated for 72 hrs by real-time PCR analysis; assay type: ADME, cell-based; settings: hepatocytes, dose 0.1-10 µM
# Hepatocyte = test: Cytotoxicity against human primary hepatocytes isolated from YND donor at 0.1 to 10 uM incubated for 72 hrs by cytotox-glo assay; assay type: toxicity, cell-based; settings: dose 0.1-10 µM
# [8] = Drug accumulation in female Beagle dogs at 5 mg/kg, IG measured for 7 days by LC-MS/MS analysis; assay type: ADME, organism-based, Canis lupus familiaris; settings: dog, in vivo, po, 168 h, time 7 day
# NCI-H1703 [9] = test: Antitumor activity against human NCI-H1703 cells xenografted in female Balb/c nude mouse assessed as tumor growth inhibition at 40 mg/kg QD, po measured every 3 days for 28 days by vernier caliper based analysis relative to control; assay type: functional; settings: NCI-H1703, 672 h, time 28 day, read-out: TGI
# Cytochrome P450 2C8 = Cytochrome P450 2C8 (Homo sapiens, UniProt P10632); test: Inhibition of CYP2C8 in human liver microsomes in the presence of NADPH incubated for 60 mins by LC-MS/MS analysis; assay type: ADME, Microsome
# LoVo [10] = test: Antitumor activity against human LoVo cells xenografted in female Balb/c nude mouse assessed as tumor growth inhibition at 40 mg/kg QD, po measured every 3 days for 25 days relative to control; assay type: functional; settings: 600 h, time 25 day, read-out: TGI
# LoVo [11] = test: Induction of apoptosis in human LoVo cells assessed as late apoptotic cells at 3 uM incubated for 24 hrs by Annexin-V-FITC-PI staining based flow cytometric analysis (reference value: 13.2 %); assay type: functional
# [12] = Stability in Beagle dog plasma assessed as half life by LC-MS/MS analysis; assay type: ADME, cell-free, Canis lupus familiaris
# [13] = Plasma protein binding in Beagle dog at 1 uM incubated for 5 hrs in HTD dialysis in the presence of verapamil by LC-MS/MS analysis relative to control; assay type: ADME, cell-free, Canis lupus familiaris; settings: read-out: PPB (converted)
# [14] = Drug accumulation in male Beagle dogs at 5 mg/kg, IG measured for 7 days by LC-MS/MS analysis; assay type: ADME, organism-based, Canis lupus familiaris; settings: dog, in vivo, po, 168 h, time 7 day
# CYP2C19, sequence (P33261 whole entry): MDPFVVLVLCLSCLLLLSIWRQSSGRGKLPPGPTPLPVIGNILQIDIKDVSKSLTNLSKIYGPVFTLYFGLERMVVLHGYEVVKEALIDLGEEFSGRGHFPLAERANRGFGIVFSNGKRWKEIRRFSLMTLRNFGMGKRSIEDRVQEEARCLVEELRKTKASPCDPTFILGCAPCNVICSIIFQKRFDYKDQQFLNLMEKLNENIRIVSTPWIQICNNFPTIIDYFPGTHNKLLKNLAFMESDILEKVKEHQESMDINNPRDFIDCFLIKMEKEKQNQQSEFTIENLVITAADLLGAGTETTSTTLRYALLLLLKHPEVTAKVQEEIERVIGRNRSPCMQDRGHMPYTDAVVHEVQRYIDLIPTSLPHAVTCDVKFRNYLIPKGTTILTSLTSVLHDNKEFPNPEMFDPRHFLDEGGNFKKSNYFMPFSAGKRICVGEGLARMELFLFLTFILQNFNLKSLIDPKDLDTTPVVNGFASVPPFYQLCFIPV
# Cytochrome P450 2C8, sequence (P10632 whole entry): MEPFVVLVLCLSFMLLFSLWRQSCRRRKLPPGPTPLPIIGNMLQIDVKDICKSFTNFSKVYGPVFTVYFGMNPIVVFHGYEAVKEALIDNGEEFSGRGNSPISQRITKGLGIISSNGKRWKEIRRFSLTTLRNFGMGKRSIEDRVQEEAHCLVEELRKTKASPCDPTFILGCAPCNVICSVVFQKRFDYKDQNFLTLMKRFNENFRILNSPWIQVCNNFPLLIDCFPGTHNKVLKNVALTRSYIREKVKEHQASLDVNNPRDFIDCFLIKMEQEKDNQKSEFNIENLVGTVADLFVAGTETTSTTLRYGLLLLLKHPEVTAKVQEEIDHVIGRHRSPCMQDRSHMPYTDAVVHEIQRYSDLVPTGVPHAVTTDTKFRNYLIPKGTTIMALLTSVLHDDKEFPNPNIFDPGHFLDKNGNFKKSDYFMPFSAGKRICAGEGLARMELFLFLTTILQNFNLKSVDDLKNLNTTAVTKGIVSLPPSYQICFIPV
structure (smiles),measurement,setting,value
Cc1nn(-c2cccnc2)c(C)c1-c1cc(N2CC3CCC(C2)O3)nc2c(-c3ccn[nH]3)cnn12.O=C(O)/C=C/C(=O)O,"fraction unbound at 5 h, 1 µM",[1],0.361
same,Drug metabolism,[2],metabolite_detected
same,Drug metabolism,[3],metabolite_detected
same,inhibition in vivo at 40 mg/kg,NCI-H1703 [4],36.2%
same,Activity,LoVo [5],23.8%
same,Drug excretion,[6],Active
same,"activity at 1 h, 1 µM",CYP2C19,109%
same,Activity,[7],Active
same,Activity,Hepatocyte,Non-toxic
same,Drug uptake,[8],Active
same,inhibition in vivo at 40 mg/kg,NCI-H1703 [9],73.3%
same,IC50,Cytochrome P450 2C8,37.1 µM
same,inhibition in vivo at 40 mg/kg,LoVo [10],42.6%
same,Activity,LoVo [11],19.8%
same,half-life,[12],> 2 h
same,"fraction unbound at 5 h, 1 µM",[13],0.256
same,Drug uptake,[14],Active
